Literature values in US20110111002A1, “TRANSPORT AND DELIVERY OF GLUTATHIONE INTO HUMAN CELLS USING GOLD NANOPARTICLES” (priority 2009, published 2011).

Key:
[1] = system: intracellular glutathione concentration; details: versus the three component amino acids (precursors)
[2] = humans, injectable
[3] = system: cell type tested; details: irrespective of the cell type tested

In the case of N[C@@H](CCC(=O)N[C@@H](CS)C(=O)NCC(=O)O)C(=O)O [GSH, L-gammaglutamyl-L-cysteinylglycine], the “efficiency in raising the intracellular glutathione concentration compared to the precursors” value [1] is given as “three times more efficient”.
For O=C([O-])CC([S-])C(=O)[O-].[Au+].[Na+].[Na+] (stereo not drawn) [Myochrisine], the “tolerance of high concentrations” value [2] is listed as “excellent tolerance”.
In the case of O=C([O-])CC([S-])C(=O)[O-].[Au+].[Na+].[Na+] (stereo not drawn) [Tauredon], the toxicity [3] is listed as “comparatively nontoxic”.
